# In PubChem BioAssay (NCI):
#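 Dose response: 5 concentrations. Exposure: 48 h. Format: 96-well plates. Endpoint: linear interpolation; highest concentration if not reached. At the GI50, growth is halved. TGI marks complete inhibition of growth.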
# Experiments:
# Assay in all cases: NCI-60 cell line screen, 48 h
# DU-145 prostate = tested on: DU-145 prostate
# HOP-92 NSCLC = tested on: HOP-92 NSCLC
# CAKI-1 renal = tested on: CAKI-1 renal
# PC-3 prostate = tested on: PC-3 prostate
# UACC-257 melanoma = tested on: UACC-257 melanoma
# A498 renal = tested on: A498 renal
# IGROV1 ovarian = tested on: IGROV1 ovarian
# UO-31 renal = tested on: UO-31 renal
# HCT-116 colon = tested on: HCT-116 colon
# OVCAR-3 ovarian = tested on: OVCAR-3 ovarian
# SK-MEL-2 melanoma = tested on: SK-MEL-2 melanoma
# SK-MEL-5 melanoma = tested on: SK-MEL-5 melanoma
# SW-620 colon = tested on: SW-620 colon
# LOX IMVI melanoma = tested on: LOX IMVI melanoma
# NCI-H226 lung = tested on: NCI-H226 lung
# KM12 colon = tested on: KM12 colon
# M14 melanoma = tested on: M14 melanoma
# MCF7 breast = tested on: MCF7 breast
# 786-0 renal = tested on: 786-0 renal
# MOLT-4 leukemia = tested on: MOLT-4 leukemia
# ACHN renal = tested on: ACHN renal
# OVCAR-8 ovarian = tested on: OVCAR-8 ovarian
# RXF 393 renal = tested on: RXF 393 renal
# HCT-15 colon = tested on: HCT-15 colon
# SF-295 CNS = tested on: SF-295 CNS
# NCI-H522 lung = tested on: NCI-H522 lung
# SK-MEL-28 melanoma = tested on: SK-MEL-28 melanoma
# HT29 colon = tested on: HT29 colon
# SNB-75 CNS = tested on: SNB-75 CNS
# T-47D breast = tested on: T-47D breast
# EKVX NSCLC = tested on: EKVX NSCLC
# SNB-19 CNS = tested on: SNB-19 CNS
# HOP-62 NSCLC = tested on: HOP-62 NSCLC
# OVCAR-4 ovarian = tested on: OVCAR-4 ovarian
# MALME-3M melanoma = tested on: MALME-3M melanoma
# SN12C renal = tested on: SN12C renal
# NCI/ADR-RES ovarian = tested on: NCI/ADR-RES ovarian
# K-562 leukemia = tested on: K-562 leukemia
# CCRF-CEM leukemia = tested on: CCRF-CEM leukemia
# SR leukemia = tested on: SR leukemia
# NCI-H23 lung = tested on: NCI-H23 lung
# BT-549 breast = tested on: BT-549 breast
# SF-268 CNS = tested on: SF-268 CNS
# SF-539 CNS = tested on: SF-539 CNS
# HS 578T breast = tested on: HS 578T breast
# U251 CNS = tested on: U251 CNS
# RPMI-8226 leukemia = tested on: RPMI-8226 leukemia
# COLO 205 colon = tested on: COLO 205 colon
# OVCAR-5 ovarian = tested on: OVCAR-5 ovarian
# HCC-2998 colon = tested on: HCC-2998 colon
# A549 NSCLC = tested on: A549 NSCLC
# NCI-H460 lung = tested on: NCI-H460 lung
# TK-10 renal = tested on: TK-10 renal
# SK-OV-3 ovarian = tested on: SK-OV-3 ovarian
# UACC-62 melanoma = tested on: UACC-62 melanoma
# MDA-MB-231 breast = tested on: MDA-MB-231 breast
# MDA-MB-435 = tested on: MDA-MB-435
# HL-60(TB) leukemia = tested on: HL-60(TB) leukemia
structure (smiles),measurement,setting,value
C=CN(C(=O)N1CCN(c2cc3c(cc2F)c(=O)c(C(=O)O)cn3C2CC2)CC1)c1nc(-c2ccc(OC)cc2)cs1,GI50,DU-145 prostate,3.93 µM
same,TGI,DU-145 prostate,> 100 µM
same,GI50,HOP-92 NSCLC,2.45 µM
same,TGI,HOP-92 NSCLC,5.57 µM
same,GI50,CAKI-1 renal,2.84 µM
same,TGI,CAKI-1 renal,18.3 µM
same,GI50,PC-3 prostate,3.65 µM
same,TGI,PC-3 prostate,> 100 µM
same,GI50,UACC-257 melanoma,2.97 µM
same,TGI,UACC-257 melanoma,7.18 µM
same,GI50,A498 renal,2.93 µM
same,TGI,A498 renal,> 100 µM
same,GI50,IGROV1 ovarian,3.89 µM
same,TGI,IGROV1 ovarian,> 100 µM
same,GI50,UO-31 renal,2.1 µM
same,TGI,UO-31 renal,> 100 µM
same,GI50,HCT-116 colon,3.42 µM
same,TGI,HCT-116 colon,> 100 µM
same,GI50,OVCAR-3 ovarian,3.29 µM
same,TGI,OVCAR-3 ovarian,> 100 µM
same,GI50,SK-MEL-2 melanoma,2.59 µM
same,TGI,SK-MEL-2 melanoma,5.21 µM
same,GI50,SK-MEL-5 melanoma,2.11 µM
same,TGI,SK-MEL-5 melanoma,4.78 µM
same,GI50,SW-620 colon,4.04 µM
same,TGI,SW-620 colon,> 100 µM
same,GI50,LOX IMVI melanoma,2.45 µM
same,TGI,LOX IMVI melanoma,> 100 µM
same,GI50,NCI-H226 lung,2.9 µM
same,TGI,NCI-H226 lung,> 100 µM
same,GI50,KM12 colon,3.12 µM
same,TGI,KM12 colon,> 100 µM
same,GI50,M14 melanoma,3.61 µM
same,TGI,M14 melanoma,> 100 µM
same,GI50,MCF7 breast,3.36 µM
same,TGI,MCF7 breast,> 100 µM
same,GI50,786-0 renal,3.37 µM
same,TGI,786-0 renal,23.1 µM
same,GI50,MOLT-4 leukemia,3.36 µM
same,TGI,MOLT-4 leukemia,> 100 µM
same,GI50,ACHN renal,3.77 µM
same,TGI,ACHN renal,> 100 µM
same,GI50,OVCAR-8 ovarian,3.3 µM
same,TGI,OVCAR-8 ovarian,15.5 µM
same,GI50,RXF 393 renal,5.2 µM
same,TGI,RXF 393 renal,45.1 µM
same,GI50,HCT-15 colon,2.86 µM
same,TGI,HCT-15 colon,> 100 µM
same,GI50,SF-295 CNS,2.83 µM
same,TGI,SF-295 CNS,8.26 µM
same,GI50,NCI-H522 lung,2.67 µM
same,TGI,NCI-H522 lung,6.95 µM
same,GI50,SK-MEL-28 melanoma,4.26 µM
same,TGI,SK-MEL-28 melanoma,> 100 µM
same,GI50,HT29 colon,3.42 µM
same,TGI,HT29 colon,> 100 µM
same,GI50,SNB-75 CNS,2.51 µM
same,TGI,SNB-75 CNS,6.7 µM
same,GI50,T-47D breast,3.12 µM
same,TGI,T-47D breast,> 100 µM
same,GI50,EKVX NSCLC,4.12 µM
same,TGI,EKVX NSCLC,> 100 µM
same,GI50,SNB-19 CNS,4.7 µM
same,TGI,SNB-19 CNS,46 µM
same,GI50,HOP-62 NSCLC,3.37 µM
same,TGI,HOP-62 NSCLC,65.4 µM
same,GI50,OVCAR-4 ovarian,3.96 µM
same,TGI,OVCAR-4 ovarian,> 100 µM
same,GI50,MALME-3M melanoma,4.11 µM
same,TGI,MALME-3M melanoma,> 100 µM
same,GI50,SN12C renal,3.14 µM
same,TGI,SN12C renal,> 100 µM
same,GI50,NCI/ADR-RES ovarian,3.07 µM
same,TGI,NCI/ADR-RES ovarian,9.07 µM
same,GI50,K-562 leukemia,3.14 µM
same,TGI,K-562 leukemia,> 100 µM
same,GI50,CCRF-CEM leukemia,3.45 µM
same,TGI,CCRF-CEM leukemia,> 100 µM
same,GI50,SR leukemia,2.69 µM
same,TGI,SR leukemia,> 100 µM
same,GI50,NCI-H23 lung,3.48 µM
same,TGI,NCI-H23 lung,14.9 µM
same,GI50,BT-549 breast,2.39 µM
same,TGI,BT-549 breast,7.52 µM
same,GI50,SF-268 CNS,4.14 µM
same,TGI,SF-268 CNS,> 100 µM
same,GI50,SF-539 CNS,2.8 µM
same,TGI,SF-539 CNS,7.78 µM
same,GI50,HS 578T breast,3.22 µM
same,TGI,HS 578T breast,14.5 µM
same,GI50,U251 CNS,4.04 µM
same,TGI,U251 CNS,13.4 µM
same,GI50,RPMI-8226 leukemia,2.75 µM
same,TGI,RPMI-8226 leukemia,> 100 µM
same,GI50,COLO 205 colon,2.54 µM
same,TGI,COLO 205 colon,6.59 µM
same,GI50,OVCAR-5 ovarian,5.13 µM
same,TGI,OVCAR-5 ovarian,> 100 µM
same,GI50,HCC-2998 colon,5.12 µM
same,TGI,HCC-2998 colon,> 100 µM
same,GI50,A549 NSCLC,3.39 µM
same,TGI,A549 NSCLC,> 100 µM
same,GI50,NCI-H460 lung,3.54 µM
same,TGI,NCI-H460 lung,> 100 µM
same,GI50,TK-10 renal,5.23 µM
same,TGI,TK-10 renal,23.7 µM
COc1cc2c(cc1OC)OC(c1c(OC)ccc(OC)c1O)CC2 (configuration not stated),TGI,DU-145 prostate,> 100 µM
same,TGI,HOP-92 NSCLC,> 100 µM
same,TGI,CAKI-1 renal,> 100 µM
same,TGI,PC-3 prostate,> 100 µM
same,TGI,UACC-257 melanoma,> 100 µM
same,TGI,A498 renal,> 100 µM
same,TGI,IGROV1 ovarian,> 100 µM
same,TGI,UO-31 renal,> 100 µM
same,TGI,HCT-116 colon,> 100 µM
same,TGI,OVCAR-3 ovarian,> 100 µM
same,TGI,SK-MEL-2 melanoma,> 100 µM
same,TGI,SK-OV-3 ovarian,> 100 µM
same,TGI,UACC-62 melanoma,> 100 µM
same,TGI,SK-MEL-5 melanoma,> 100 µM
same,TGI,SW-620 colon,> 100 µM
same,TGI,LOX IMVI melanoma,> 100 µM
same,TGI,NCI-H226 lung,> 100 µM
same,TGI,KM12 colon,> 100 µM
same,TGI,M14 melanoma,> 100 µM
same,TGI,MCF7 breast,> 100 µM
same,TGI,786-0 renal,> 100 µM
same,TGI,MOLT-4 leukemia,> 100 µM
same,TGI,ACHN renal,> 100 µM
same,TGI,OVCAR-8 ovarian,> 100 µM
same,TGI,RXF 393 renal,> 100 µM
same,TGI,HCT-15 colon,> 100 µM
same,TGI,SF-295 CNS,> 100 µM
same,TGI,SK-MEL-28 melanoma,> 100 µM
same,TGI,MDA-MB-231 breast,> 100 µM
same,TGI,MDA-MB-435,> 100 µM
same,TGI,HT29 colon,> 100 µM
same,TGI,SNB-75 CNS,> 100 µM
same,TGI,T-47D breast,> 100 µM
same,TGI,EKVX NSCLC,> 100 µM
same,TGI,SNB-19 CNS,> 100 µM
same,TGI,HL-60(TB) leukemia,69.4 µM
same,TGI,HOP-62 NSCLC,> 100 µM
same,TGI,OVCAR-4 ovarian,> 100 µM
same,TGI,MALME-3M melanoma,> 100 µM
same,TGI,NCI/ADR-RES ovarian,> 100 µM
same,TGI,K-562 leukemia,> 100 µM
same,TGI,CCRF-CEM leukemia,77.8 µM
same,TGI,SR leukemia,> 100 µM
same,TGI,NCI-H23 lung,> 100 µM
same,TGI,BT-549 breast,> 100 µM
same,TGI,SF-268 CNS,> 100 µM
same,TGI,SF-539 CNS,> 100 µM
same,TGI,HS 578T breast,> 100 µM
same,TGI,U251 CNS,> 100 µM
same,TGI,RPMI-8226 leukemia,> 100 µM
same,TGI,COLO 205 colon,> 100 µM
same,TGI,OVCAR-5 ovarian,> 100 µM
same,TGI,HCC-2998 colon,> 100 µM
same,TGI,A549 NSCLC,> 100 µM
same,TGI,NCI-H460 lung,> 100 µM
same,TGI,TK-10 renal,> 100 µM
